Earlier results as cited in patent US20240173272A1 (LUPIN ATLANTIS HOLDINGS SA, priority 2021, published 2024).

How the values were obtained:
[1] = weak base
[2] = oral administration

In the case of `Cc1cccc(C)c1OCC(C)N` (centres unmarked) [Mexiletine], the pKa [1] is listed as “about 9.1” and the bioavailability [2] is listed as “about 90%”.
